Test results as given in patent publication US10106557B2, “Preparation method for benzoxazoleoxazine ketone compound and intermediate and crystal form thereof” (NORTH CHINA PHARMACEUTICAL NEW DRUG R & D CO., LTD., priority 2014, dated 2018).

Experiments:
Assay type in all cases: biochemical
human thrombin = human thrombin (Homo sapiens (Human), UniProt P00734); test: Human thrombin assay; details: substrate S-2238; Ki from IC50 by Cheng-Prusoff
Experimental: (§1) The inhibitory ability of the compounds to be tested on Xa factor or other enzymes, such as thrombin or trypsin, in human or rats were determined by IC50 values, wherein the IC50 value was associated with the inhibition constant Ki. The purified enzyme was used in the chromogenic determination. The initial rate of hydrolysis of the chromogenic substrate was determined by the variation of absorbance at 405 nm in the linear part on time (usually 2 to 10 minutes after the addition of the substrate) at 37° C. by using FlexStation III (USA Molecular Instruments). By plotting a curve regarding the relative velocity of the hydrolysis (compared to the control group which was free of inhibition) on the logarithm of the concentration of the compounds and linear regression calculation, the concentration of the inhibitor leading to a 50% reduction of the rate of the hydrolysis of the substrate was determined. The enzyme inhibition constant (Ki) was calculated according to Cheng-Prusoff equation: Ki=IC50/(1+[S]/Km), where [S] was the substrate concentration and Km was the meter-Mann's constant determined by the double reciprocal mapping method. The IC50 values of the compounds were obtained by GraphPad Prism software. The curve is fitted by using the “shaped dose effect (variable slope)”.
The inhibitory activity on human thrombin was determined by using a buffer (10 mM HEPES buffer, pH 7.4, 2 mM CaCl2). Appropriate wells in the Greiner 384 microtiter plate were used to determine IC50. A buffer contained 50 μL human thrombin (Sigma; T8885), the final concentration of which was 0.05 NIH unit/mL. A buffer containing 2 μL 2% (V/V) DMSO (control group which was free of inhibition) or various concentration of the compound to be tested was diluted in the buffer containing 2% (V/V) DMSO. A buffer containing 48 μL substrate S-2238 (Chromogenix; Chemical formula: H-D-Phe-Pip-Arg-pNA.2HCl) was added, the final concentration was 30 μM. In this assay, the compound to be tested and the enzyme were pre-incubated for 10 minutes, the substrate was added to give a final volume of 100 μL to start the assay.

human trypsin = test: Human trypsin assay; details: substrate S-2222; Ki from IC50 by Cheng-Prusoff
Experimental: as §1
The inhibitory activity on human trypsin was determined by using buffer (50 mM Tris, pH 8.2, and 20 mM CaCl2). Appropriate wells in the Greiner 384 microtiter plate were used to determine IC50. A buffer containing 50 μL human trypsin (Sigma; T6424), the final concentration was 0.39 BAEE unit/mL, a buffer containing 2 μL 2% (V/V) DMSO (control group which was free of inhibition) or various concentration of the compound to be tested was diluted in the buffer containing 2% (V/V) DMSO. A buffer containing substrate S-2222 (Chromogenix), the final concentration was 30 μM. In this assay, the compound to be tested and the enzyme were pre-incubated for 10 minutes and then 48 μL substrate was added to give a final volume of 100 μL to start the assay.

[1] = molecular target: human coagulation factor Xa (Homo sapiens (Human), UniProt P00742); test: Human coagulation factor Xa chromogenic assay; details: purified enzyme, substrate S-2222, 37° C.; Ki from IC50 by Cheng-Prusoff; read-out: hfXa Ki
Sequence of human coagulation factor Xa (P00742 235-488): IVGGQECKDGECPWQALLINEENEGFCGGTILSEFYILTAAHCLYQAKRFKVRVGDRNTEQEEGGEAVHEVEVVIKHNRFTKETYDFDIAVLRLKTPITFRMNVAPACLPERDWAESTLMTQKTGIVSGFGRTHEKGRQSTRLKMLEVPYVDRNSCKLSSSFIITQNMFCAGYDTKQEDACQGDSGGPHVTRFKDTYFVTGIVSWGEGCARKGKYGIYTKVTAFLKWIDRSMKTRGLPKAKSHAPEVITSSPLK
Sequence of human coagulation factor Xa (P00742 41-179): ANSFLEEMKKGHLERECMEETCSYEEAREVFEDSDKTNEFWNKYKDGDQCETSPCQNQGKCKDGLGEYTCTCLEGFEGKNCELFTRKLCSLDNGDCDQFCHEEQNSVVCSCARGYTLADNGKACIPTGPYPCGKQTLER
Experimental: as §1
The inhibitory activity on coagulation factor Xa activity in human or rats was measured by using Tris-HCl buffer (50 mM, pH 8.3, 150 mM NaCl). […] The buffer containing 2 μL 2% (V/V) DMSO (control group which was free of inhibition) or various concentrations of the compounds to be tested were diluted in the buffer containing 2% (V/V) DMSO, and 48 μL buffer of the supporting base S-2222 (Chromogenix; chemical formula: Bz-IIe-Glu(γ-OR)-Gly-Arg-pNA.HCl R═H (50%), wherein R═CH3 (50%)) was added, the final concentration was 0.172 mM.

prothrombinase = prothrombinase (Homo sapiens (Human), UniProt P00742); test: Prothrombin assay (prothrombinase, thrombin production); details: human factor Xa, human blood platelets, substrate S-2238
Sequence of prothrombinase (P00742 235-488): as the sequence (P00742 235-488) above
Sequence of prothrombinase (P00742 41-179): as the sequence (P00742 41-179) above
Sequence of prothrombinase (P12259 29-737 partner): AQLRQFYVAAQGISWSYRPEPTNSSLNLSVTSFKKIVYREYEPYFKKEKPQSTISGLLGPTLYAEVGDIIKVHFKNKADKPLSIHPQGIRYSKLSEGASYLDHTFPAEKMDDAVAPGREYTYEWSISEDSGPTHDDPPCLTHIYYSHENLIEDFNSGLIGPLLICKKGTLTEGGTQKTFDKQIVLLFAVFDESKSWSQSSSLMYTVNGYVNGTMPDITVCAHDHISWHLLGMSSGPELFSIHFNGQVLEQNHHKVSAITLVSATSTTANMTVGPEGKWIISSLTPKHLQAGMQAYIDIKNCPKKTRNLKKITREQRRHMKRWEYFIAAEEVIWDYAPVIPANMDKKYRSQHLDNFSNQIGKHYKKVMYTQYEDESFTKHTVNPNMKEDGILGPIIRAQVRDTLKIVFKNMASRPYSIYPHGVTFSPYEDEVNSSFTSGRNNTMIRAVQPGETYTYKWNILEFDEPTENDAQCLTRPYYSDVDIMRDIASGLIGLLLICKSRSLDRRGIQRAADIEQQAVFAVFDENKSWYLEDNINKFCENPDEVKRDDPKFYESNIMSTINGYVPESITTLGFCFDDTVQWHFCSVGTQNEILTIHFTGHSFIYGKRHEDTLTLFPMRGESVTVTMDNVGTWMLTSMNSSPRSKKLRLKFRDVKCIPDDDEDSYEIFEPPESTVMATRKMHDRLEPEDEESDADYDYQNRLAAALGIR
Sequence of prothrombinase (P12259 1574-2224 partner): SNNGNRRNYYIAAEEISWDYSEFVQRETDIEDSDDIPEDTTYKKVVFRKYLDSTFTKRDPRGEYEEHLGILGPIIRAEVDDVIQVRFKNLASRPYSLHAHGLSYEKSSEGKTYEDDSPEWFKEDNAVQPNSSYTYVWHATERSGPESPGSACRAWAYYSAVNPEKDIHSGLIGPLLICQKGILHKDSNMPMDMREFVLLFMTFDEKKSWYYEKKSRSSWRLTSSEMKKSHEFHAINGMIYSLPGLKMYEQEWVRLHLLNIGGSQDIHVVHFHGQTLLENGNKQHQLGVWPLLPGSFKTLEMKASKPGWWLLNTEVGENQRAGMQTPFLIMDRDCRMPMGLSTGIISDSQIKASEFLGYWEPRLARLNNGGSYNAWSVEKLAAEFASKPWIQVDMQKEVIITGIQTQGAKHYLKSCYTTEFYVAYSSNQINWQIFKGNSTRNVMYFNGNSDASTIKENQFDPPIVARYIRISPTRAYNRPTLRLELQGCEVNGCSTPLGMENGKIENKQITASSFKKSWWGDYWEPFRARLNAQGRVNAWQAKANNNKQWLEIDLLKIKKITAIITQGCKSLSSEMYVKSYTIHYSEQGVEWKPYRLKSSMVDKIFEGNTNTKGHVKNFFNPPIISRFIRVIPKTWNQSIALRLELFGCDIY
Experimental: (§2) The inhibitory ability of the compounds to be tested on Xa factor or other enzymes, such as thrombin or trypsin, in human or rats were determined by IC50 values, wherein the IC50 value was associated with the inhibition constant Ki. The purified enzyme was used in the chromogenic determination. […] By plotting a curve regarding the relative velocity of the hydrolysis (compared to the control group which was free of inhibition) on the logarithm of the concentration of the compounds and linear regression calculation, the concentration of the inhibitor leading to a 50% reduction of the rate of the hydrolysis of the substrate was determined. The enzyme inhibition constant (Ki) was calculated according to Cheng-Prusoff equation: Ki=IC50/(1+[S]/Km), where [S] was the substrate concentration and Km was the meter-Mann's constant determined by the double reciprocal mapping method. The IC50 values of the compounds were obtained by GraphPad Prism software. The curve is fitted by using the “shaped dose effect (variable slope)”.
The activity of the compound to be tested against prothrombinase was determined by the production of thrombin. In summary, 12.5 μL human factor Xa was incubated in 10 mM HEPES buffer and pH 7.4, 2 mM CaCl2, the final concentration was 0.5 nM, and 12.5 μL human blood platelets (1×10^7 mL^−1) was added at 37° C. After 10 mins, 25 μL prothrombin was added to initiate the reaction, the final concentration was 0.5 μM, a buffer containing 2 μL 2% (V/V) DMSO (control group which was free of inhibition) or various concentration of the compound was diluted in the buffer containing 2% (V/V) DMSO.

[2] = molecular target: rat coagulation factor Xa (Rattus norvegicus (Rat), UniProt Q63207); test: Rat coagulation factor Xa chromogenic assay; details: purified enzyme, substrate S-2222, 37° C.; Ki from IC50 by Cheng-Prusoff; read-out: rfXa Ki
Sequence of rat coagulation factor Xa (Q63207 232-482): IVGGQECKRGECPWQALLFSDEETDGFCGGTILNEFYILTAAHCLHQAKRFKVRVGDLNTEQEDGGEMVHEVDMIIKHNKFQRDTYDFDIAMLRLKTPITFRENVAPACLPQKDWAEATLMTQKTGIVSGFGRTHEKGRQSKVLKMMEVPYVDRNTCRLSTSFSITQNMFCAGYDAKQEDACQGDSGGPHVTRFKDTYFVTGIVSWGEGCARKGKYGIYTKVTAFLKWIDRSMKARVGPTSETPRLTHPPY
Sequence of rat coagulation factor Xa (Q63207 41-180): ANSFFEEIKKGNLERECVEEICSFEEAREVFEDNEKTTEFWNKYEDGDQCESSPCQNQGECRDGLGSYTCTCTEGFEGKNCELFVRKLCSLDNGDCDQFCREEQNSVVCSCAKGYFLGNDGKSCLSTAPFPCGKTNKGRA
Experimental: as §2
The inhibitory activity on coagulation factor Xa activity in human or rats was measured by using Tris-HCl buffer (50 mM, pH 8.3, 150 mM NaCl).

SMILES	Ki (human thrombin) [nM]	Ki (human trypsin) [µM]	Ki [1] [nM]	Ki (prothrombinase) [nM]	Ki [2] [nM]
O=C(NC[C@@H]1OC(=O)N2c3ccc(-n4cncn4)cc3OC[C@@H]12)c1ccc(Cl)s1 [Compound 34]			106		
O=C(NC[C@@H]1OC(=O)N2c3ccc(N4CCCCC4=O)cc3OC[C@@H]12)c1ccc(Cl)s1 [Compound 2]	> 1000	> 20			4.45
O=C(NC[C@@H]1OC(=O)N2c3ccc(-n4ccccc4=O)cc3OC[C@@H]12)c1ccc(Cl)s1 [Compound 8]	> 1000	> 20	1.92	0.9	3.17

Other lines, results leading:

Ki (human thrombin) [nM]	Ki (human trypsin) [µM]	Ki [1] [nM]	Ki (prothrombinase) [nM]	Ki [2] [nM]	SMILES
> 1000	> 20	4.13	4.41	16.5	O=C(NC[C@@H]1OC(=O)N2c3ccc(N4CCCNC4=O)cc3OC[C@@H]12)c1ccc(Cl)s1 [Compound 7]
> 1000	> 20	9.71	16.2	21.5	COC[C@H]1CCCN1c1ccc2c(c1)OC[C@H]1[C@H](CNC(=O)c3ccc(Cl)s3)OC(=O)N21 [Compound 30]
> 1000	> 20	1.01	0.47	2.87	O=C(NC[C@@H]1OC(=O)N2c3ccc(N4CCOCC4=O)cc3OC[C@@H]12)c1ccc(Cl)s1 [Compound 1, 5-chloro-N-(((3S,3aS)-1-one-7-(3-ketomorpholine)-1,3,3a,4-tetrahydrobenzo[b]oxazolo[3,4-d][1,4]oxazin-3-yl)methyl)thiophene-2-carboxamide]
